ChEMBL document CHEMBL2380265, “Inhibitors of the p53/hdm2 protein-protein interaction-path to the clinic” (Bioorg Med Chem Lett, 2013)
Where a SMILES comes first, the peptide text is derived from it. [ ]: non-standard residue; d: D form. Trp(6-Cl) = N[C@@H](Cc1c[nH]c2cc(Cl)ccc12)C(=O)O; Pmp = N[C@@H](Cc1ccc(CP(=O)(O)O)cc1)C(=O)O; Ac3c = NC1(C(=O)O)CC1; Aib = CC(C)(N)C(=O)O

Columns and labels:
[1] = biological target: T1, E3 ubiquitin-protein ligase Mdm2 (Homo sapiens, UniProt Q00987); assay: Antagonist activity at human MDM2
T1 sequence (Q00987 whole entry): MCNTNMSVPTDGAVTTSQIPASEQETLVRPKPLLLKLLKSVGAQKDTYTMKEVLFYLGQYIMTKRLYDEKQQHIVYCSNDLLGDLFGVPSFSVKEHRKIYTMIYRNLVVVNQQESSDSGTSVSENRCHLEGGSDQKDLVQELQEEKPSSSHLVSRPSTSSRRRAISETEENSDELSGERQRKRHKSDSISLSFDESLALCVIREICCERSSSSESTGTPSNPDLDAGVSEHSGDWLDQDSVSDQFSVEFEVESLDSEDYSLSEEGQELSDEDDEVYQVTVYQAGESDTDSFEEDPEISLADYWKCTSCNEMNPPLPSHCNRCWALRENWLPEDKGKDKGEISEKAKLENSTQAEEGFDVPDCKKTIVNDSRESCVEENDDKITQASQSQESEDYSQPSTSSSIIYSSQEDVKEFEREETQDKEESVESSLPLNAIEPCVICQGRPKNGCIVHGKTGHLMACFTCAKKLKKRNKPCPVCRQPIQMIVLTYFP

[2] = biological target: Tumour suppressor p53/oncoprotein Mdm2 (Homo sapiens, UniProt P04637+Q00987); assay: Binding affinity to human MDM2/p53; assay type: protein assay
Chain of Tumour suppressor p53/oncoprotein Mdm2 (P04637 whole entry): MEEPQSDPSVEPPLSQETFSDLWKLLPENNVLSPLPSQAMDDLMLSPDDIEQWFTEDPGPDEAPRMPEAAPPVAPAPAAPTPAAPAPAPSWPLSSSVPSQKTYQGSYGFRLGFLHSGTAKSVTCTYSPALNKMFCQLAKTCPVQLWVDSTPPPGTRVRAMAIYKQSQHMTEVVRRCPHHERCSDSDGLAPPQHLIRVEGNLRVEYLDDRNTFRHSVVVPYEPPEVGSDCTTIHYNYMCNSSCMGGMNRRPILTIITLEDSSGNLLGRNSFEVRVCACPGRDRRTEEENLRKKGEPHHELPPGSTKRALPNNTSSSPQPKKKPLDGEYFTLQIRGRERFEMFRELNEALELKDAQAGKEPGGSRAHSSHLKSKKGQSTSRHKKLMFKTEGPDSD
Chain of Tumour suppressor p53/oncoprotein Mdm2 (Q00987 whole entry): as the sequence (Q00987 whole entry) above

[3] = biological target: T1, E3 ubiquitin-protein ligase Mdm2; assay: Antagonist activity at human GST-tagged MDM2 assessed as inhibition of binding to full length p53

| IC50 [1] | SMILES | also measured |
| --- | --- | --- |
| 313 nM | CSCC[C@H](NC(=O)[C@H](Cc1ccccc1)NC(=O)[C@H](CCCN=C(N)N)NC(=O)[C@@H]1CCCN1C(=O)[C@H](CCSC)NC(C)=O)C(=O)N[C@@H](CC(=O)O)C(=O)N[C@@H](Cc1ccc(O)cc1)C(=O)N[C@@H](Cc1c[nH]c2ccccc12)C(=O)N[C@@H](CCC(=O)O)C(=O)NCC(=O)N[C@@H](CC(C)C)C(=O)N[C@@H](CC(N)=O)C(N)=O (Ac-MPRFMDYWEGLN-NH2) | – |
| 8900 nM | CSCC[C@H](NC(=O)[C@@H](N)Cc1ccccc1)C(=O)N[C@@H](CC(=O)O)C(=O)N[C@@H](Cc1ccc(O)cc1)C(=O)N[C@@H](Cc1c[nH]c2ccccc12)C(=O)N[C@@H](CCC(=O)O)C(=O)NCC(=O)N[C@@H](CC(C)C)C(N)=O (H-FMDYWEGL-NH2) | – |
| – | CCOc1cc(C(C)(C)C)ccc1C1=N[C@@H](c2ccc(Cl)cc2)[C@@H](c2ccc(Cl)cc2)N1C(=O)N1CCN(CCCS(C)(=O)=O)CC1 | Kd [2]: 10.7 nM |
| – | CSCC[C@H](NC(=O)[C@H](Cc1ccccc1)NC(C)=O)C(=O)NC(C)(C)C(=O)N[C@@H](Cc1ccc(CP(=O)(O)O)cc1)C(=O)N[C@@H](Cc1c[nH]c2cc(Cl)ccc12)C(=O)N[C@@H](CCC(=O)O)C(=O)NC1(C(=O)N[C@@H](CC(C)C)C(N)=O)CC1 (Ac-FM[Aib][Pmp][Trp(6-Cl)]E[Ac3c]L-NH2) | IC50 [3]: 5 nM |
